Here are results for two molecules from the NIST ThermoML archive (doi:10.1016/j.jct.2018.08.037).

This series can be described thus: mn = molality of the nth substance listed, in mol/kg. The note with it: 298.15 K, 100 kPa, Liquid, Buoyancy - hydrostatic balance.

Where “and” joins values, the source holds several entries; their conditions need not be identical. Identical values can stand only once. ± gives the expanded uncertainty stated by the source.

The mass density is mass per unit of volume.

In the case of `[Na+].[OH-]` [sodium hydroxide] + O, the mass density is 1043 ± 14 kg/m3 and 1041 ± 14 kg/m3 (m1 = 1); 1081 ± 14 kg/m3 (m1 = 2).
Take `[Na+].[O-][Cl+3]([O-])([O-])[O-]` [sodium perchlorate] + O: the mass density (m1 = 1.05) was 1076 ± 14 kg/m3 and 1072 ± 15 kg/m3; the mass density (m1 = 1.62) is reported as 1110 ± 14 kg/m3; the mass density (m1 = 2.21) stood at 1148 ± 14 kg/m3; the mass density (m1 = 2.22) is recorded as 1145 ± 14 kg/m3; the mass density (m1 = 2.84) is recorded as 1185 ± 16 kg/m3; the mass density (m1 = 2.86) stood at 1180 ± 16 kg/m3. The mass density (m1 = 3.51) is recorded as 1223 ± 14 kg/m3 and the mass density (m1 = 6.68) came out at 1360 ± 14 kg/m3.
